Results published in patent US8993527B2, “Methods, compositions, and formulations for preventing or reducing adverse effects in a patient” (Pericor Therapeutics, Inc., priority 2005, dated 2015).
Values belong to the compound of their own block, whether it stands above or below them.

Assays:
[1] = system: platelet aggregation in human whole blood; assay: Inhibition of platelet aggregation in human whole blood; type: cell-based; details: Homo sapiens, Platelet, 10 min, 10 minutes at 37° C., 10 µM adenosine added, ADP (6-25 μM)
Experimental: Whole blood was drawn from healthy donors and collected in 0.1 vol. of sodium citrate to prevent coagulation. Platelet aggregation was measured by the impedance technique using a Whole Blood Aggregometer. The test compounds were incubated in whole blood for 10 minutes at 37° C. and 10 µM adenosine was added 5 minutes before eliciting aggregation. Aggregation was induced by addition of ADP (6-25 μM) at the minimum concentration inducing full aggregation in untreated controls.

[2] = target: T1, purified pig heart adenosine kinase (Sus scrofa, UniProt A0A5G2R0F5); assay: Adenosine kinase activity; type: biochemical; details: 0.5 μM [U14C] adenosine, 1 mM ATP, 20 minutes at 37° C.
T1 construct: 0.1 μg of purified pig heart adenosine kinase; from tissue; host or cells: pig heart
Experimental: Inhibition of enzyme activity was determined using a 0.1 ml assay mixture containing 50 mM Tris-maleate, pH 7.0, 0.1% (w/v) BSA, 1 mM ATP, 1 mM MgCl2, 0.5 μM [U^14 C] adenosine (500 mCi/mmol) and 0.1 μg of purified pig heart adenosine kinase. Different concentrations of test compound were incubated in the assay mixture for 20 minutes at 37° C. From each reaction mixture, 20 μl portions were removed and spotted on 2^2 pieces of Whatman DE81 filter paper. The papers were then washed to remove [^14 C] adenosine in 1 mM ammonium formate followed by deionized water and finally 95% ethanol. The papers were dried, and [^14C] AMP measured by scintillation counting. Activities were determined from the amount of [^14C] AMP formed.

[3] = target: T2, NBTI-specific adenosine transport site (UniProt O54698); assay: [3H]-NBTI binding assay; details: read-out: ED50 (50% displacement of bound [3H]-NBTI); 0.5 mg neuronal membrane protein, 0.5 nM [3H]-NBTI, 30 minutes
T2 sequence (O54698 1-457): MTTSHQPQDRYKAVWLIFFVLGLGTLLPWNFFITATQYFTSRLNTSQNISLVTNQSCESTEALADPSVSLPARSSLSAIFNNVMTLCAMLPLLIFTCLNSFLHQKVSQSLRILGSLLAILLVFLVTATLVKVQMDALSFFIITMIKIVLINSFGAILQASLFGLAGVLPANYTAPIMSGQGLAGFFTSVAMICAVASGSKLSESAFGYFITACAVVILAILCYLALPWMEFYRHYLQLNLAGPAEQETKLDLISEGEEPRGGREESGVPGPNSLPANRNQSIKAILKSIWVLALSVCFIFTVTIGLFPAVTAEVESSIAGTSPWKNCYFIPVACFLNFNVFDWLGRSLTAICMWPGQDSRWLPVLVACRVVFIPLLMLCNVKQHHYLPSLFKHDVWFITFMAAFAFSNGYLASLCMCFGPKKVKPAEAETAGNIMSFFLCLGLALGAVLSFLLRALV
Experimental: Increasing concentrations of the test compounds were incubated for 30 minutes with 0.5 mg neuronal membrane protein together with 0.5 nM [^3 H]-NBTI in a Tris buffer (pH 7.4) at room temperature. The assays were quenched and membranes collected by rapid filtration. Filters were then solubilized and radioactivity determined by scintillation counting.

[4] = system: longitudinal muscle from the guinea pig ileum; assay: Inhibition of stimulated contraction in isolated ileum; details: electrically stimulated guinea pig ileum muscle
From the text: These are detailed in Table II.

[5] = system: coronary endothelial cells; assay: Inhibition of adenosine utilization in cell culture; type: cell-based; details: Endothelial cell, 1 μM [3H] adenosine, 15 minutes
Experimental: In this assay, endothelial cells were incubated with 5 μM or 50 μM of the test compound together with 1 μM [^3H] adenosine for 15 minutes. Inhibition of adenosine utilization was determined by measuring the concentration of extracellular adenosine by scintillation counting following separation by thin layer chromatography (TLC).

[6] = system: patients undergoing coronary artery bypass surgery; assay: Aspirin within 48 hours of revascularization: prospective study of CABG patients; type: in vivo
From the text: A prospective, longitudinal study enrolled 5,436 patients. Eligible patients included those with medically-refractory coronary artery disease and scheduled for coronary artery bypass surgery at 70 medical institutions among 17 countries in North and South America, Europe, the Middle East and Asia. At each institution, 100 patients were to be prospectively enrolled according to a systematic sampling scheme that allowed a random sampling of patients at each institution among all patients undergoing surgery at that institution.
Of the 5,436 patients enrolled, 5,065 patients completed the study and were included in the final analysis. Of the 371 patients excluded, 32 were excluded due to patient withdrawal, 2 due to death prior to surgery, 97 due to cancellation or rescheduling of surgery, 132 patients due to change in procedure, 11 due to inadvertent enrollment in another study, 86 due to incomplete data and 11 due to incomplete blood sampling, shipping or storage.
Aspirin was administered in doses of 160 mg to 650 mg to 3,001 patients within 48 hours of revascularization. All potential side-effects associated with aspirin use were recorded daily by blinded investigators. Independent investigators coded all medications received-including pro- and anti-thrombotic and pro- and anti-coagulant medications, and blood products—by day throughout hospitalization, as well as at admission and at discharge, or until death.
For each enrolled patient, approximately 7,500 fields of data were collected throughout the patient's index hospitalization, from admission until discharge, by independent investigators; treated physicians were blinded to all research data. Data included demographic, historical, clinical, laboratory, eloectrocardiographic, specialized testing, resource utilization, and adverse outcomes. Following last patient enrollment, all data fields for each patient were queried centrally for completeness and accuracy, with all changes documented prior to database closure.
All outcomes were prespecified, defined by protocol, and discerned by investigators blinded to treatment group. Fatal and non-fatal outcomes were classified as cardiac (myocardial infarction, congestive heart failure and cardiac death), cerebral (stroke, encephalopathy and cerebral death), renal (dysfunction, failure and renal death), gastrointestinal (ischemia, infarction and GI death), or other (such as infectious, pulmonary). The diagnosis of myocardial infarction required either: the development of new Q waves (as defined by Minnesota Code 1-1-1I or 1I-2-7); or new persistent S T-segment or T-wave changes (Minnesota Code 4-1, 4-2, 5-1 or 5-2) associated with an elevation of CK-MB isoenzyme values; or autopsy evidence of acute myocardial infarction. The diagnosis of heart failure required either: the use of a ventricular assist device; or the use of continuous inotropic support for at least 24 hours; or autopsy evidence of heart failure. Cerebral outcomes were classified as: clinically diagnosed stroke or encephalopathy; or CT, MRI or autopsy evidence of a focal or global defect. Renal dysfunction was defined as: a serum creatinine ≧177 μmol/L accompanied by a ≧62 μmol/L rise over baseline; and renal failure was defined as dysfunction requiring dialysis, or autopsy evidence of renal failure. Gastrointestinal ischemia was defined as abdominal pain diagnosed as intestinal ischemia, or detected at exploration; infarction required bowel resection, or autopsy evidence of intestinal infarction.
The risk of death for aspirin taking versus control populations were compared using the Chi-Square test. Individual ischemic outcomes involving the heart, brain, kidney and gastrointestinal tract, and combined ischemic outcomes were compared using Fisher's Exact Test or the Chi-Square test as appropriate. Odds ratios and the 95% confidence intervals are presented with associated P values. […]

ischemic rat hearts = assay: Rat heart ischemia model: tissue adenosine levels; type: in vivo; details: intraperitoneal; hearts excised after 60 minutes, incubated 60 minutes at 37° C.
Experimental: Male rats were injected intraperitonealy with either the AICA riboside analog, AICA riboside or saline, as a control. After 60 minutes, the hearts were excised and incubated at 37° C. for a further 60 minutes. Tissue extracts were prepared and analyzed for adenosine by high performance liquid chromatography (HPLC).

[7] = Oral bioavailability and half-life in fasted adult beagles; type: in vivo, dog
Experimental: Heparinized blood and urine were collected at selected intervals over 24 hours. Each sample was chilled, centrifuged at 4° C. and frozen prior to HPLC analysis.

T1 sequence (A0A5G2R0F5 1-362): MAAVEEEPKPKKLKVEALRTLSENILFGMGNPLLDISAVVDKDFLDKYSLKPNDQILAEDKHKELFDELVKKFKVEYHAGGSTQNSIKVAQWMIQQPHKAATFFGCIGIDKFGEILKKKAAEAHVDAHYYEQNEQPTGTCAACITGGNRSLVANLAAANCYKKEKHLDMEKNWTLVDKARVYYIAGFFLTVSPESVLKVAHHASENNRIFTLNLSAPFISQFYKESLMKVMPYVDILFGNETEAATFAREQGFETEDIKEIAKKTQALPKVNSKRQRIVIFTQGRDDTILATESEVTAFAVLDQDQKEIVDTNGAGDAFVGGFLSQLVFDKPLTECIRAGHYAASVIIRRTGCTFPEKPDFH

Structure (SMILES): NC(=O)c1nc(S)n([C@@H]2O[C@H](CO)[C@@H](O)[C@H]2O)c1N [27 (1-395), 5-amino-2-thio-1-β-D-ribofuranosyl imidazole-4-carboxamide]
IC50 [1]: 950 µM | IC50 [2]: 8 µM | melting point: 205 to 208 °C | EC50 [3]: 344 µM | IC50 ([4]; Cavia porcellus): 500 µM

Structure (SMILES): Nc1c(C(=O)NCc2ccc([N+](=O)[O-])cc2)ncn1C1OC(CCl)C(O)C1O (stereo not shown) [51 (1-466)]
inhibition at 5 µM [5]: 27 ± 2% | inhibition at 50 µM [5]: 65 ± 2% | IC50 [1]: 193 µM | melting point: 174 to 176 °C

Structure (SMILES): CC(=O)Oc1ccccc1C(=O)O [Aspirin]
Odds Ratio for mortality (multivariate) ([6]; Aspirin use (admission)): 1.46 | Odds Ratio for mortality (multivariate) ([6]; Aspirin use (prior to surgery)): 0.77 | Odds Ratio for mortality (multivariate) ([6]; Aspirin use following revascularization): 0.27 | Odds Ratio for mortality (multivariate) ([6]; Discontinuation of aspirin use): 1.04 | Length of hospitalization ([6]; aspirin group, 11.32±9.44 without): 9.57±7.14 | patients who died within 12 hours of surgery ([6]; aspirin group, 25 patients in the control group): none | patients who died within 48 hours of surgery ([6]; aspirin group, 42 patients in the control group): one | risk of dying during hospitalization ([6]; aspirin within 48 hours of revascularization, 5.9% without): 1.4% | non-fatal ischemic complications (heart, brain, kidney or gastrointestinal tract) ([6]; aspirin within 48 hours of revascularization, 24.5% without): 13.6% | reduction in mortality ([6]; first use of aspirin 48 hours after surgery, not significant (P=0.534)): 15%

melting point: 128 to 129 °C
Structure (SMILES): CC(=O)OC[C@H]1O[C@@H](c2nc(C(N)=O)c(N)[nH]2)[C@H](OC(C)=O)[C@@H]1OC(C)=O [Compound No. 2 (1-111), 5-Amino-(2,3,5-tri-O-acetyl-beta-D-ribofuranosyl)imidazole-4-carboxamide]

IC50 [4]: 400 µM
Structure (SMILES): Nc1c(C(=O)NC2CC2)ncn1[C@@H]1O[C@H](CO)[C@@H](O)[C@H]1O [Compound No. 12 (1-232), 5-Amino-1-beta-D-ribofuranosylimidazole-4-N-(cyclopropyl)carboxamide]
Tissue Adenosine Levels (% Increase vs. Saline) (ischemic rat hearts): 29%

Half Life [7]: 1.30 h | Absolute Oral Bioavailability % ([7]; 10 mg/kg IV bolus and 20 mg/kg via stomach tube): 71 ± 13 (n = 2) % | IC50 [4]: 800 µM
Structure (SMILES): NC[C@H]1O[C@@H](n2cnc(C(N)=O)c2N)[C@H](O)[C@@H]1O [Compound No. 21 (1-227), 5′-Amino-5′-deoxy-AICA-riboside]

IC50 [1]: 90 µM | EC50 [3]: 100 µM | IC50 ([4]; Cavia porcellus): 60 µM
Structure (SMILES): Nc1c(C(=O)NCc2ccc(Cl)cc2)ncn1C1OC(CO)C(O)C1O [Compound No. 29 (1-349), 5-amino-1-β-D-ribofuranosylimidazole-4-N-[(4-Chlorophenyl)methyl]carboxamide]
inhibition at 5 µM [5]: 41 ± 11% | inhibition at 50 µM [5]: 67 ± 8%

Structure (SMILES): Nc1c(C(=O)NN2CCCCC2)ncn1[C@@H]1O[C@H](CO)[C@@H](O)[C@H]1O [Compound No. 36 (1-207), 5-amino-4-(1-piperidinocarbamoyl)-1-β-D-ribofuranosylimidazole]
Tissue Adenosine Levels (% Increase vs. Saline) (ischemic rat hearts): 34%

melting point: 214 to 216 °C (dec.) | EC50 [3]: 60 µM
Structure (SMILES): Nc1c(C(=O)Nc2ccc(Br)cc2)ncn1C1OC(CO)C(O)C1O [Compound No. 55 (1-484), 5-Amino-1-β-D-ribofuranosylimidazole-4-N-(4-bromophenyl)carboxamide]

melting point: 227 to 229 °C | EC50 [3]: 80 µM
Structure (SMILES): Nc1c(C(=O)Nc2ccc(I)cc2)ncn1C1OC(CO)C(O)C1O [Compound No. 57 (1-488), 5-Amino-1-β-D-ribofuranosyl-imidazole-4-N-(4-iodophenyl) carboxamide]

melting point: 131 to 135 °C | EC50 [3]: 48 µM
Structure (SMILES): Nc1c(C(=O)Nc2ccccc2Cl)ncn1C1OC(CO)C(O)C1O [Compound No. 64 (1-519), 5-Amino-1-β-D-ribofuranosylimidazole-4-N-(2-chlorophenyl)carboxamide]

IC50 [2]: 23 µM
Structure (SMILES): C[C@H]1O[C@@H](n2c(S)nc(C(N)=O)c2N)[C@H](O)[C@@H]1O [Compound No. 67 (1-535), 5-Amino-2-thio-1-βD-(5 deoxyribofuranosyl)imidazole-4-carboxamide]

IC50 [2]: 17 µM
Structure (SMILES): NC[C@H]1O[C@@H](n2c(S)nc(C(N)=O)c2N)[C@H](O)[C@@H]1O [Compound No. 70 (1-551), 5-Amino-2-thio-1-(5-amino-5-deoxy-β-D-ribofuranosyl)imidazole-4-carboxamide]

Structure (SMILES): CC(=O)CC(c1ccccc1)c1c(O)c2ccccc2oc1=O (stereo not shown) [Warfarin/coumadin]
Odds Ratio for mortality (multivariate) ([6]; Warfarin/coumadin over the week prior to revascularization): 2.00
